What was measured:
Bramley apples [1] = test: Water released by sliced Bramley apples
Description: (§1) The firmness of the produce in Example 11a were evaluated by bending produce samples. Appearance was evaluated by visual inspection. The moisture was evaluated by measuring the amount of water the produce released.
(§2) Whole Bramley apples free from blemishes or bruises, were rinsed with water, sanitized with a sodium hypochlorite solution having 100 parts per million available chlorine, for two minutes, then peeled, cored, and sliced. The sliced apples were dipped into a fresh produce preservative solution that contained 5.12% strontium ascorbate; the fresh produce preservative solution contained 4.12% ascorbic acid and 1.79% […], for about 30 to 60 seconds. The apples were then drained in a colander for one minute. The apple slices and the colander were placed in 500 micron plastic bags from SunSet Packaging, stored at 4° C. and evaluated several times over a 15 day period. Water which collected in the plastic bag was removed and weighed.
For comparison, similarly prepared apple slices were placed in one of several solutions that contained either: 4.3% ascorbic acid and 1.13% hydrated MgCO3, specifically 4MgCO3.Mg(OH)25H2O or a 5.0% w/w aqueous solution of calcium ascorbate dihydrate, having a pH of 7.2; or a 5.3% w/w solution, of 4.12% ascorbic acid and 1.17% calcium carbonate,; or 6% ascorbic acid having a pH of 2.3; or 48 g ascorbic acid, 48 g citric acid, 16 g CaCl2 and 48 g NaCl in 800 g water, with a pH of 1.2; or 6% w/w citric acid and 6% w/w ascorbic acid; or 4.64% sodium ascorbate having 4.13% ascorbic acid and 1.18% NaCo3. […]

Bramley apples [2] = test: Evaluation of sliced Bramley apples: appearance by visual inspection, firmness by bending
Description: as §1, §2
For comparison, similarly prepared apple slices were placed in one of several solutions that contained either: 4.3% ascorbic acid and 1.13% hydrated MgCO3, specifically 4MgCO3.Mg(OH)25H2O or a 5.0% w/w aqueous solution of calcium ascorbate dihydrate, having a pH of 7.2; or a 5.3% w/w solution, of 4.12% ascorbic acid and 1.17% calcium carbonate,; or 6% ascorbic acid having a pH of 2.3; or 48 g ascorbic acid, 48 g citric acid, 16 g CaCl2 and 48 g NaCl in 800 g water, with a pH of 1.2; or 6% w/w citric acid and 6% w/w ascorbic acid; or 4.64% sodium ascorbate having 4.13% ascorbic acid and 1.18% NaCo3.
Bramley apples were preserved with the fresh produce preservative as in Example 11a except that the preservative solution contained lithium ascorbate. The lithium ascorbate solution was prepared by adding 7.35 grams of lithium carbonate and 35 grams ascorbic acid to 800 grams water.
For comparison, apple slices were placed in one of several comparative solutions: a 5.0% w/w aqueous solution of calcium ascorbate dihydrate containing 42.5 grams of calcium ascorbate dihydrate and 800 grams water with a pH of 7; a 5.3% w/w solution of calcium ascorbate containing 44.94 grams of mixture of 9.95 grams calcium carbonate and 35 grams ascorbic acid in 800 grams water with a pH of 5.5; a comparative solution, containing 48 g ascorbic acid, 48 g citric acid, 16 g CaCl2, 48 g NaCl and 800 g water with a pH of 1.2; a comparative solution of sodium ascorbate containing 28.45 grams of sodium carbonate 35 grams ascorbic acid, 800 grams water having a pH of 6.8; a comparative solution of calcium ascorbate containing 8.75 grams of calcium carbonate, 35 grams ascorbic acid, and to 800 grams water; a comparative solution of calcium ascorbate containing 9.95 grams of calcium carbonate, 35 grams ascorbic acid, and 765 grams water; a comparative solution of magnesium ascorbate containing 9.66 grams of hydrated magnesium carbonate 4MgCO3.Mg(OH)25H2O, 35 grams ascorbic acid, 765 grams water, having a pH of 6.4; and a comparative solution of zinc ascorbate containing 35 grams ascorbic acid, 12.74 grams zinc carbonate and 765 grams water, with a pH of 5.5. The apple slices were evaluated on day five.

calcium ascorbate dihydrate
Water Released (Bramley apples [1]; 4 hr at 4° C.): 6.84 g
Water Released (Bramley apples [1]; 28 hr at 4° C.): 5.88 g
Water Released (Bramley apples [1]; 52 hr at 4° C.): 5.56 g
Water Released (Bramley apples [1]; 94 hr at 4° C.): 4.00 g
Water Released (Bramley apples [1]; 191 hr at 4° C.): 2.67 g
Water Released (Bramley apples [1]; 335 hr at 4° C.): 1.33 g
Texture (Bramley apples [2]; 28 hr at 4° C.): Firm
Texture (Bramley apples [2]; 52 hr at 4° C.): Firm
Texture (Bramley apples [2]; 94 hr at 4° C.): Firm
Texture (Bramley apples [2]; 191 hr at 4° C.): Firm
Appearance (visual inspection) (Bramley apples [2]; 335 hr at 4° C.): Good condition
Texture (Bramley apples [2]; 335 hr at 4° C.): Firm
Color (Bramley apples [2]; Day 5): White
Texture (Bramley apples [2]; Day 5): Very Firm

zinc ascorbate
Color (Bramley apples [2]; Day 5): Brown
Texture (Bramley apples [2]; Day 5): Very Soft

magnesium ascorbate
Water Released (Bramley apples [1]; 4 hr at 4° C.): 6.54 g
Water Released (Bramley apples [1]; 28 hr at 4° C.): 7.07 g
Water Released (Bramley apples [1]; 52 hr at 4° C.): 6.43 g
Water Released (Bramley apples [1]; 94 hr at 4° C.): 4.75 g
Water Released (Bramley apples [1]; 191 hr at 4° C.): 3.73 g
Water Released (Bramley apples [1]; 335 hr at 4° C.): 2.17 g
Texture (Bramley apples [2]; 28 hr at 4° C.): Firm
Texture (Bramley apples [2]; 52 hr at 4° C.): Firm
Texture (Bramley apples [2]; 94 hr at 4° C.): Firm
Texture (Bramley apples [2]; 191 hr at 4° C.): Firm
Appearance (visual inspection) (Bramley apples [2]; 335 hr at 4° C.): Good color
Texture (Bramley apples [2]; 335 hr at 4° C.): Firm and crisp
Color (Bramley apples [2]; Day 5): White
Texture (Bramley apples [2]; Day 5): Very Firm

O=C1O[C@H]([C@@H](O)CO)C([O-])=C1O.[Na+] [Sodium Ascorbate, sodium ascorbate]
Water Released (Bramley apples [1]; 4 hr at 4° C.): 6.58 g
Water Released (Bramley apples [1]; 28 hr at 4° C.): 6.74 g
Water Released (Bramley apples [1]; 52 hr at 4° C.): 6.67 g
Water Released (Bramley apples [1]; 94 hr at 4° C.): 4.87 g
Water Released (Bramley apples [1]; 191 hr at 4° C.): 4.08 g
Water Released (Bramley apples [1]; 335 hr at 4° C.): 3.77 g
Texture (Bramley apples [2]; 4 hr at 4° C.): Firm
Texture (Bramley apples [2]; 28 hr at 4° C.): Firm
Texture (Bramley apples [2]; 52 hr at 4° C.): Firm
Texture (Bramley apples [2]; 94 hr at 4° C.): Firm
Texture (Bramley apples [2]; 191 hr at 4° C.): Firm
Appearance (visual inspection) (Bramley apples [2]; 335 hr at 4° C.): Internal browning on some
Color (Bramley apples [2]; Day 5): White
Texture (Bramley apples [2]; Day 5): Firm

— US20130309380A1, “METHODS FOR PRESERVING FRESH PRODUCE” (NatureSeal, Inc., priority 2003, published 2013)
